US11066398B2, “Small molecule c-Myc inhibitors” (THE SCRIPPS RESEARCH INSTITUTE, priority 2013, dated 2021)

Key:
ATG-Myc = ATG-Myc (Homo sapiens, UniProt P01106); experiment: Myc-induced oncogenic transformation (focus assay) in chicken embryo fibroblasts; assay type: cell-based; conditions: for Inhibition of ATG-Myc focus formation: CEF focus assay, concentration of 10 μM; for EOT (efficiency of transformation): focus counts in the presence of inhibitor over focus counts of control plates, CEF infected with RCAS ATG-Myc
v-src, and v-jun = conditions: CEF specificity assay
Protocol: Assay for oncogenic transformation in cell culture. […] CEF were infected with a series of ten-fold dilutions of the indicated virus. Compounds were added to the nutrient agar overlay. Additional compound-containing overlay was added every 3 days until experimental end point.
The specificity of the inhibitory activities of the analog compounds was also examined.

[1] = system: NDRG1 (N-myc downregulated gene 1); experiment: NDRG1 expression by Western blot in MDA-MB-231 and NCI-H460 cells; assay type: cell-based, human; conditions: 20 μM, 24 hrs
Protocol: (§1) NCI-H460 cells were grown in RPMI medium, and MDA-MB-231 cells were grown in DMEM medium; both media contained 10% FBS. KJ-Pyr-9 and 10058-F4 were added at a concentration of 20 μM and the cells were treated for 24 hrs before Western blot analysis.
(§2) Interference with Myc transcriptional activity of Myc affects the transcription of a large number of target genes and can function as activator or repressor. […] NDRG1 is a direct transcriptional target of Myc that acts as a repressor of this gene. For comparison, we used the previously identified inhibitor of MYC-MAX dimerization that binds to the disordered monomer and prevents Myc from adopting a conformation needed for the interaction with MAX (Wang et al., Mol. Cancer Ther. 6:2399-2408, 2007; and Huang et al., Exp. Hematol. 34:1480-1489, 2006). Both KJ-Pyr-9 and 10058-F4 cause an increase of NDRG1 expression (FIG. 4).

MYC = experiment: Myc levels by Western blot in MDA-MB-231 and NCI-H460 cells; assay type: cell-based, human; conditions: 20 μM, 24 hrs
Protocol: as §1, §2

Sequence of ATG-Myc (P01106 whole entry): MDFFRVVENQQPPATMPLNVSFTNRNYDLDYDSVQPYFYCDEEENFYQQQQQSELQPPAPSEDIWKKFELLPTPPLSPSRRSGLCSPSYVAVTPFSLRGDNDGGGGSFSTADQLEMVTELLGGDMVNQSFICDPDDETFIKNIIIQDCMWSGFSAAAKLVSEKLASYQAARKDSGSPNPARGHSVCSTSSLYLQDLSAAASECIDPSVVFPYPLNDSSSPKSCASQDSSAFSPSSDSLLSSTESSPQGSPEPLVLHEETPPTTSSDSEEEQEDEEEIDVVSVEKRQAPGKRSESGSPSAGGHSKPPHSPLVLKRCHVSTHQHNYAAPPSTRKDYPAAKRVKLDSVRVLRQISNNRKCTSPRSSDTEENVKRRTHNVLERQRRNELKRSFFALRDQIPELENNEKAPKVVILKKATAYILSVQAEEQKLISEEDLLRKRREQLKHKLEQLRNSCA

Row | Compound | Inhibition of ATG-Myc focus formation (ATG-Myc) | further results
1 | N#Cc1ccc(-c2cc(-c3ccc(C(N)=O)cc3)cc(-c3ccco3)n2)cc1 [CG-RS-47] | no foci formation | Specificity for inhibiting Myc over v-src, 111047R and v-jun (v-src, and v-jun): some degrees of specificity
2 | NC(=O)c1ccc(-c2cc(-c3ccc([N+](=O)[O-])cc3)nc(-c3ccco3)c2)o1 [CG-RS-50, 5-(2-(furan-2-yl)-6-(4-nitrophenyl)pyridin-4-yl)furan-2-carboxamide] | some inhibiting activities | Inhibition of Myc oncogenic activity in CEF transformation assay (ATG-Myc; CEF, ATG-Myc): effective
3 | NC(=O)c1ccc(-c2cc(-c3ccc(C(F)(F)F)cc3)nc(-c3ccco3)c2)cc1 [CG-RS-54] | some inhibiting activities | –
4 | NC(=O)c1ccc(-c2cc(-c3ccc(OC(F)(F)F)cc3)nc(-c3ccco3)c2)cc1 [CG-RS-55] | some inhibiting activities | –
5 | CS(=O)(=O)c1ccc(-c2cc(-c3ccc(C(N)=O)cc3)cc(-c3ccco3)n2)cc1 [CG-RS-58] | no inhibition | –
6 | NC(=O)c1ccc(-c2cc(-c3ccc(SC(F)(F)F)cc3)nc(-c3ccco3)c2)cc1 [CG-RS-61] | no inhibition | –
7 | COC(=O)c1ccc(-c2cc(-c3ccc(C(N)=O)cc3)cc(-c3ccco3)n2)cc1 [CG-RS-64] | no inhibition | –
8 | COC(=O)c1cccc(-c2cc(-c3ccc(C(N)=O)cc3)cc(-c3ccco3)n2)c1 [CG-RS-70] | no foci formation | Cell growth in CEF focus assay (ATG-Myc; CEF): slight decrease in cell growth
9 | NC(=O)c1ccc(-c2cc(-c3ccc(Br)cc3)nc(-c3ccc([N+](=O)[O-])cc3)c2)cc1 [CG-RS-90] | no inhibition | –
10 | NC(=O)c1ccc(-c2cc(-c3ccc([N+](=O)[O-])cc3)nc(-c3ccccc3Br)c2)cc1 [CG-RS-91] | no inhibition | –
11 | NC(=O)c1ccc(-c2cc(-c3ccc([N+](=O)[O-])cc3)nc(-c3cccc(Br)n3)c2)cc1 [CG-RS-106] | no inhibition | –
12 | NC(=O)c1ccc(-c2cc(-c3ccc([N+](=O)[O-])cc3)nc(-c3ccc(Br)cn3)c2)cc1 [CG-RS-123] | no inhibition | –
13 | NC(=O)c1ccc(-c2cc(-c3ccc([N+](=O)[O-])cc3)nc(-c3ccccn3)c2)cc1 [CG-RS-128] | no inhibition | –
14 | NC(=O)c1ccc(-c2cc(-c3ccncc3)nc(-c3ccc([N+](=O)[O-])cc3)c2)cc1 [CG-RS-129] | no foci formation | Cell growth in CEF focus assay (ATG-Myc; CEF): slight decrease in cell growth; Specificity for inhibiting Myc over v-src, 111047R and v-jun (v-src, and v-jun): some degrees of specificity
15 | CCc1ccc(/C=C2/SC(=S)NC2=O)cc1 [Compound 10058-F4, reference compound] | – | NDRG1 expression [1]: increase; Effect on Myc levels (MYC): strong decrease
16 | NC(=O)c1ccc(-c2ccc(-c3cc(-c4ccccc4)nc(-c4ccco4)c3)cc2)cc1 [KJ-Pyr-4, 4′-(2-(furan-2-yl)-6-phenylpyridin-4-yl)-[1,1′-biphenyl]-4-carboxamide] | – | EOT (efficiency of transformation) (ATG-Myc): 1.12
17 | COc1ccc(-c2cc(-c3ccc(C(N)=O)o3)cc(-c3ccco3)n2)cc1 [KJ-Pyr-6, 5-(2-(furan-2-yl)-6-(4-methoxyphenyl)pyridin-4-yl)furan-2-carboxamide] | – | EOT (efficiency of transformation) (ATG-Myc): 0.79
